Data reported in patent publication US20070015828A1 (Wyeth, priority 2005, published 2007).

Assays:
pH-Solubility = assay type: physicochemical; conditions: free base
Hygroscopicity = assay type: physicochemical
[1] = Solution Stability in aqueous solutions; assay type: physicochemical; conditions: room temperature, all aqueous solutions (pH 1.4-10.0)
CACO-2 cells = test: Permeability assessment, HTS-24 CACO-2 model; assay type: in vitro ADME
Experimental: The rate of drug transport through the CACO-2 cells was determined as the Apparent Permeability Coefficient according to the following formula:
Papp=AQ X Rv cm.s- AT 60.A.Co
ΔT=Change in time (minutes)
Co=Initial concn in the donor chamber (mM.cm^−3)
A=Surface area of membrane (cm^2)
60=Conversion factor to give cm.s^−1
Rv=volume of receiver compartment.
Transepithelial electrical resistance (TER) was calculated from resistance measurements according to the following formula: TER=(R[cells+filter+medium])−(R[filter+medium])×cell area.
Apparent permeability rates were interpreted as follows. […] Apparent permeability values less than metoprolol or propranolol are considered to be ≦90% fa (moderate permeability classification). Apparent permeability values of <10 nms^−1 are considered to be ≦50% fa (low permeability classification). TER values of <120 ohms cm^2 indicate low monolayer integrity over the assay period.
A compound/metoprolol or propranolol ratio of <1 indicates a moderate to low permeability compound.

Adenosine A2A (hr) = Adenosine A2A (hr) (Homo sapiens, UniProt P29274); test: Receptor binding assay: Adenosine A2A; conditions: Test Compound @ 10 1 M
Chain of Adenosine A2A (hr) (P29274 whole entry): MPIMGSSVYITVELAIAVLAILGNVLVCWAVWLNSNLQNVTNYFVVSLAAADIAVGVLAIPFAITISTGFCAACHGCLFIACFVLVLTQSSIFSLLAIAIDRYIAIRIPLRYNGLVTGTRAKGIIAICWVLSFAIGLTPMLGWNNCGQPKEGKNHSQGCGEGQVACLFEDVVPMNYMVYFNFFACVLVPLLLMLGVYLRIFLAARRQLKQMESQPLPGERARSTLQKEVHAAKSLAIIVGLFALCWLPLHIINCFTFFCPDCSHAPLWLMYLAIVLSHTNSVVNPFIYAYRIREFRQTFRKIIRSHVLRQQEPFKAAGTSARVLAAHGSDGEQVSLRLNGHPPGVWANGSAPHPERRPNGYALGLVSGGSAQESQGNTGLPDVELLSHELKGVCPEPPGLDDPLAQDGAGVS

Adrenergic, Beta 1 (hr) = Adrenergic, Beta 1 (hr) (Homo sapiens, UniProt P08588); test: Receptor binding assay: Adrenergic Beta 1; conditions: Test Compound @ 10 1 M
Chain of Adrenergic, Beta 1 (hr) (P08588 whole entry): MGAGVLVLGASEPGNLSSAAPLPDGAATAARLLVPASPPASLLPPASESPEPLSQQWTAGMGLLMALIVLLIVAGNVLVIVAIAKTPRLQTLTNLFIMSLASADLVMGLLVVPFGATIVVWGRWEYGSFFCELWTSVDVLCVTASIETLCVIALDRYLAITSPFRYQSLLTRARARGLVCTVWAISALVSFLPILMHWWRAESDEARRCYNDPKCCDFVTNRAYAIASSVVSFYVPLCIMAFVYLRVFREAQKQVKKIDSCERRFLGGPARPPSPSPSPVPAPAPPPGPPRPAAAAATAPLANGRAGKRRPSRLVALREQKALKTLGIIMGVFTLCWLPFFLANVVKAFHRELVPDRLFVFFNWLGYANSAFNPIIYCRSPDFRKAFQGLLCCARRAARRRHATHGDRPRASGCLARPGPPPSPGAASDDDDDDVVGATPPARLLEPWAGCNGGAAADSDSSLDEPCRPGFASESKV

Cannabinoid, CB1 (hr) = Cannabinoid, CB1 (hr) (Homo sapiens, UniProt P21554); test: Receptor binding assay: Cannabinoid CB1; conditions: Test Compound @ 10 1 M
Chain of Cannabinoid, CB1 (hr) (P21554 whole entry): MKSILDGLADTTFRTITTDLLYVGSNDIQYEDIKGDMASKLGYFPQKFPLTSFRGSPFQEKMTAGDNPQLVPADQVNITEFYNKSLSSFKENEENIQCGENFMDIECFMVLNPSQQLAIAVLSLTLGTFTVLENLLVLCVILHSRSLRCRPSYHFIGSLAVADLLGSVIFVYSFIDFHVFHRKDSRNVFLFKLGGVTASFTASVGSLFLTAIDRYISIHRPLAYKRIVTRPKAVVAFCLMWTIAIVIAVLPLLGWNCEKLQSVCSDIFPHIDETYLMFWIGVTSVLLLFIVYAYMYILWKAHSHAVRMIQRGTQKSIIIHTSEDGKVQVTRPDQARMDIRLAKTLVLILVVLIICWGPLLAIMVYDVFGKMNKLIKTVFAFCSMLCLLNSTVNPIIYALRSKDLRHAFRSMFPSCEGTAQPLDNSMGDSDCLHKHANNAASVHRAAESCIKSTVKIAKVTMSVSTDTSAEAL

Cannabinoid, CB2 (hr) = Cannabinoid, CB2 (hr) (Homo sapiens, UniProt P34972); test: Receptor binding assay: Cannabinoid CB2; conditions: Test Compound @ 10 1 M
Chain of Cannabinoid, CB2 (hr) (P34972 whole entry): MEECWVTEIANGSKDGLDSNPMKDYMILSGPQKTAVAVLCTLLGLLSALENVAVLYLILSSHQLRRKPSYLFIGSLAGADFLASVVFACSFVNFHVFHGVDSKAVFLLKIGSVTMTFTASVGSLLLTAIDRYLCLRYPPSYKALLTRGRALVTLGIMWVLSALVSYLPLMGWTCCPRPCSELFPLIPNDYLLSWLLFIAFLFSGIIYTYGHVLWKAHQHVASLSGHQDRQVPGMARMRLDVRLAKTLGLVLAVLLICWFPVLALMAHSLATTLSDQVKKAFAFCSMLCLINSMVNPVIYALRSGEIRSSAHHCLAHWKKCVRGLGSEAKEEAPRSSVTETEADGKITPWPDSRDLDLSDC

Dopamine, D1 (hr) = Dopamine, D1 (hr) (Homo sapiens, UniProt P21728); test: Receptor binding assay: Dopamine D1; conditions: Test Compound @ 10 1 M
Chain of Dopamine, D1 (hr) (P21728 whole entry): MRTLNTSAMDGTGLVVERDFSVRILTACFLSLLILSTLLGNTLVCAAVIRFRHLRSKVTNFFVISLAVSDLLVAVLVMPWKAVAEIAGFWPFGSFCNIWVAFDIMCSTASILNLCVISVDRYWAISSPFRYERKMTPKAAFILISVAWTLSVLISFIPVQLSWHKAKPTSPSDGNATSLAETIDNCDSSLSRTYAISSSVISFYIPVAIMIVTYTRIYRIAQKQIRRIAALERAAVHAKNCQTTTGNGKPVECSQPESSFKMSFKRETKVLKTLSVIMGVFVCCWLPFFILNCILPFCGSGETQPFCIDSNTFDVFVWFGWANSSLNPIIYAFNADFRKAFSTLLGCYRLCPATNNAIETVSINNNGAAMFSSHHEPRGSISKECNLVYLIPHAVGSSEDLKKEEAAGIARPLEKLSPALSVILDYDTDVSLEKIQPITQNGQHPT

Dopamine, D2s (hr) = Dopamine, D2s (hr) (Homo sapiens, UniProt P14416); test: Receptor binding assay: Dopamine D2s; conditions: Test Compound @ 10 1 M
Chain of Dopamine, D2s (hr) (P14416 1-414 isoform P14416-2): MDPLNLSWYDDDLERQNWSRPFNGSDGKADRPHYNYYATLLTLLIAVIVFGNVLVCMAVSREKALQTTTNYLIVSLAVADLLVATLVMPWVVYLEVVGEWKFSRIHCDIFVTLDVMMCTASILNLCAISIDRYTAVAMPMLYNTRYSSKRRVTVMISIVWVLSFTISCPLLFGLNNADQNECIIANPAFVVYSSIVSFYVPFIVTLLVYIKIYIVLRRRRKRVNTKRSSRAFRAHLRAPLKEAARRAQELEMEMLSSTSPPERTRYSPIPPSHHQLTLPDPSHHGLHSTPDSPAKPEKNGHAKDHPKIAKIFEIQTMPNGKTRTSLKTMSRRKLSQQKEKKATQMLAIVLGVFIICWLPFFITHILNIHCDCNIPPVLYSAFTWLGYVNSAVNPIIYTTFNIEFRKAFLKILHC

Dopamine, D3 (hr) = Dopamine, D3 (hr) (Homo sapiens, UniProt P35462); test: Receptor binding assay: Dopamine D3; conditions: Test Compound @ 10 1 M
Chain of Dopamine, D3 (hr) (P35462 whole entry): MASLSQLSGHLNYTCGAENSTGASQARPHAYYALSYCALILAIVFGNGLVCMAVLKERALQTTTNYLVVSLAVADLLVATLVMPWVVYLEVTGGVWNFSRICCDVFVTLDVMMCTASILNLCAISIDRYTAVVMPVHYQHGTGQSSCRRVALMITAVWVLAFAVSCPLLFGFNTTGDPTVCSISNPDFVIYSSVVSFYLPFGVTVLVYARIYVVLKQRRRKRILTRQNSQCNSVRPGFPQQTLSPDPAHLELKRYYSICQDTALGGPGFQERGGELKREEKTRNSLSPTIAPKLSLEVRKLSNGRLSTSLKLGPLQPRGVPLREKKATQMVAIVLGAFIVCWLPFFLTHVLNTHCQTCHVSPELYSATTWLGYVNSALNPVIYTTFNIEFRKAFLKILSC

GABA A, Benzo, central = test: Receptor binding assay: GABA A benzo central; conditions: Test Compound @ 10 1 M
[2] = system: Glutamate, NMDA agonist Site; test: Receptor binding assay: Glutamate NMDA agonist site; conditions: Test Compound @ 10 1 M
Glutamate, NMDA Glycine = test: Receptor binding assay: Glutamate NMDA Glycine; conditions: Test Compound @ 10 1 M
Muscarinic, M3 (hr) = biological target: T1, Muscarinic, M3 (hr) (Homo sapiens, UniProt P20309); test: Receptor binding assay: Muscarinic M3; conditions: Test Compound @ 10 1 M
T1 construct: Novascreen (contract assay)
T1 sequence (P20309 whole entry): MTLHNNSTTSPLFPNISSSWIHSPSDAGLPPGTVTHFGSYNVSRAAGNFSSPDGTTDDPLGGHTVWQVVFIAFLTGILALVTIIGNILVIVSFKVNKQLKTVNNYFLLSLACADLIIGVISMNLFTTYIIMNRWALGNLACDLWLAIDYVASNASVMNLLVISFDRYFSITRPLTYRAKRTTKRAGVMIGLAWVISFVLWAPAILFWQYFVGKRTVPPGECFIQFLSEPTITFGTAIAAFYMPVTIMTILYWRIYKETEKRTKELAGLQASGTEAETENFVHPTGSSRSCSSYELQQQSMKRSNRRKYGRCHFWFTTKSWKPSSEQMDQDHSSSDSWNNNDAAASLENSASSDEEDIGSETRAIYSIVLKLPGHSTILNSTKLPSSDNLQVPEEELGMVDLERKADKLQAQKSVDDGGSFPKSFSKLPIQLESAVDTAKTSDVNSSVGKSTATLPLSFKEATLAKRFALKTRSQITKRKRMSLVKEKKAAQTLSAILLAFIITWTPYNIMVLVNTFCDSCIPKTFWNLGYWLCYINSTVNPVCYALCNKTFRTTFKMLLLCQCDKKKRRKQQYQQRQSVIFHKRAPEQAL

[3] = system: Nicotinic (a-bungarotoxin insens); assay type: binding; conditions: Test Compound @ 10 1 M
Opiate, Kappa (hr) = biological target: T2, Opiate, Kappa (hr) (Homo sapiens, UniProt P41145); test: Receptor binding assay: Opiate Kappa; conditions: Test Compound @ 10 1 M
T2 construct: Novascreen (contract assay)
T2 sequence (P41145 whole entry): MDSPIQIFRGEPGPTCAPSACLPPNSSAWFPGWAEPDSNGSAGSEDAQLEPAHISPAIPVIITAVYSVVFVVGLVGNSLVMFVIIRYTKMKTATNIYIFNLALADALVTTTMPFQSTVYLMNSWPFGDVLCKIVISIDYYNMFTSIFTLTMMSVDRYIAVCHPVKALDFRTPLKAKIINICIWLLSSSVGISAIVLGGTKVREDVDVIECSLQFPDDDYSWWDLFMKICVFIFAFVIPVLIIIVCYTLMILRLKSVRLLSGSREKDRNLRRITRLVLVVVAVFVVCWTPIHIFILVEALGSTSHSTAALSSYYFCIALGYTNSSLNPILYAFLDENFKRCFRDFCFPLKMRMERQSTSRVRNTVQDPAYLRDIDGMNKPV

Oxidase, MAO-A, Central [4] = biological target: T3, Oxidase, MAO-A, Central (Rattus norvegicus, UniProt P21396); test: Receptor binding assay: Oxidase MAO-A central (first line); conditions: Test Compound @ 10 1 M
T3 construct: Novascreen (contract assay)
T3 sequence (P21396 whole entry): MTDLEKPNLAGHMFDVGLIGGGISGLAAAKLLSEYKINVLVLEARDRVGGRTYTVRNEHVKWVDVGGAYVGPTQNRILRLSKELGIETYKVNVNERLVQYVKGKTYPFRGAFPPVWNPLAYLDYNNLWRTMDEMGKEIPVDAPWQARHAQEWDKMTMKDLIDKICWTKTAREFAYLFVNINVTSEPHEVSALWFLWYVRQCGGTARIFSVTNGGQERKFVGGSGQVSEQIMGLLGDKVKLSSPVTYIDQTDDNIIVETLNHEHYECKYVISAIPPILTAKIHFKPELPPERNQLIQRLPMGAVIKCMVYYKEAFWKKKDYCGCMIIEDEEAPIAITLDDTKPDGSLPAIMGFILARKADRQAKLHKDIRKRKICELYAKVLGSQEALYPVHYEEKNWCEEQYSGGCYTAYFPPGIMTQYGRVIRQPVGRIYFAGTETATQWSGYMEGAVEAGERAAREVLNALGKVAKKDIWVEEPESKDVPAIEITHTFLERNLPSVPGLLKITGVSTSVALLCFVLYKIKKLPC

Oxidase, MAO-A, Central [5] = test: Receptor binding assay: Oxidase MAO-A central (second line); conditions: Test Compound @ 10 1 M
Serotonin, 5HT1D (h) = biological target: T4, Serotonin, 5HT1D (h) (Homo sapiens, UniProt P28221); test: Receptor binding assay: Serotonin 5HT1D; conditions: Test Compound @ 10 1 M
T4 construct: Novascreen (contract assay)
T4 sequence (P28221 whole entry): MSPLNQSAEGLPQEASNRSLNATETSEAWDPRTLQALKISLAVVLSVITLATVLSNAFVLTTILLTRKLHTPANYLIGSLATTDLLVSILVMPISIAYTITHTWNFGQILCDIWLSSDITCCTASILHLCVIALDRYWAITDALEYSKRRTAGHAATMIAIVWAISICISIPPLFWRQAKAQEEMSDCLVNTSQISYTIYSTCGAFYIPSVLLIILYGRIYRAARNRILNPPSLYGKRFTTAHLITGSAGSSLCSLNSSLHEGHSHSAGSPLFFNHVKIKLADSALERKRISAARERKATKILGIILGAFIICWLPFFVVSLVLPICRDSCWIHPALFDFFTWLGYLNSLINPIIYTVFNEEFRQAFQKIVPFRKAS

Serotonin, 5HT4 = test: Receptor binding assay: Serotonin 5HT4; conditions: Test Compound @ 10 1 M
[6] = system: spinal nerve ligation model of neuropathic pain, mechanical hyperalgesia; test: Spinal nerve ligation model of neuropathic pain, mechanical hyperalgesia; assay type: in vivo; conditions: rat
Experimental: 1-[2-dimethylamino-1-(4-phenol)ethyl]-cis-1,4-cyclohexandiol was dissolved in sterile saline and administered orally (p.o.) at dosages of 10 mg/kg, 30 mg/kg and 100 mg/kg. Gabapentin was purchased from Toronto Research Chemicals (Ontario, Canada) and suspended in 2% Tween 80 in 0.5% methylcellulose and administered intraperitoneally (i.p.).
For the visceral pain study male CD-1 mice (20-25 g, Charles River; Kingston/Stoneridge, NY) were housed in groups of 5/cage on bedding and for the neuropathic study male Sprague-Dawley rats (125-150 g, Harlan; Indianapolis, Ind.) were housed 3/cage on bedding. For all studies animals were maintained in climate-controlled rooms on a 12-hour light/dark cycle (lights on at 0630) with food and water available ad libitum.
Surgical procedures were performed under 4% isoflurane/O2 anesthesia, delivered via nose cone and maintained at 2.5% for the duration of the surgery. After induction of anesthesia, the incision site was shaved and prepared in a sterile manner. […]
For the neuropathic model statistical significance was determined using a repeated measure ANOVA using a customized SAS-excel application (SAS Institute, Cary, N.C.). Significant main effects were analyzed further by subsequent least significant difference analysis. […]
Assessment of mechanical hyperalgesia thresholds were measured as the hind paw withdrawal threshold to a noxious mechanical stimulus and was determined using the paw pressure technique [Randall, L. O. and Selitto, J. J., A method for measurement of analgesic activity on inflamed tissue, Arch. […] Thresholds were evaluated prior to surgery and reassessed three weeks after SNL surgery. On test day, rats were administered vehicle or test compound mechanical thresholds assessed 1, 3, 5 and 24 hr after administration (n=10/group).

With `CN(C)CC(c1ccc(O)cc1)C1(O)CCC(O)CC1` (stereo not drawn) [1-[2-dimethylamino-1-(4-phenol)ethyl]-cis-1,4-cyclohexandiol] the pH-Solubility (pH-Solubility; Final pH 1.4) was “Final pH 1.4 24.2 mg/ml”, the pH-Solubility (pH-Solubility; Final pH 3.99) was “Final pH 3.99 24.1 mg/ml” and the pH-Solubility (pH-Solubility; Final pH 5.79) was “Final pH 5.79 26.7 mg/ml”. For the same molecule, the pH-Solubility (pH-Solubility; Final pH 8.4) was “Final pH 8.4 22.7 mg/ml”, the Hygroscopicity (Hygroscopicity) was “Non-hygroscopic” and the “Hygroscopicity, weight gain” value (Hygroscopicity; at 26.30C/90% RH, weight gain is lost upon reduction in % RH) was < 2%. For the same molecule, the “Solution Stability, time stable” value [1] was “The compound was stable for at least 24 hours”, the efflux activity (CACO-2 cells; CACO-2, from B:A ratio) was “no efflux activity” and the permeability classification (CACO-2 cells; CACO-2, versus propranolol reference) was “high permeability”. For the same molecule, the “Receptor Binding % Inhibition” value (Adenosine A2A (hr)) was 7.68%, the inhibition at 10 µM (Adrenergic, Beta 1 (hr)) was 7.65% and the inhibition at 10 µM (Cannabinoid, CB1 (hr)) was 8.11%. For the same molecule, the inhibition at 10 µM (Cannabinoid, CB2 (hr)) was 15.7%, the inhibition at 10 µM (Dopamine, D1 (hr)) was -5.73% and the inhibition at 10 µM (Dopamine, D2s (hr)) was 6.17%. The inhibition at 10 µM (Dopamine, D3 (hr)) was 3.36%, the “Receptor Binding % Inhibition” value (GABA A, Benzo, central) was 0.20% and the “Receptor Binding % Inhibition” value [2] was −2.99%. The “Receptor Binding % Inhibition” value (Glutamate, NMDA Glycine) was 2.24%, the inhibition at 10 µM (Muscarinic, M3 (hr)) was 0.11% and the “Receptor Binding % Inhibition” value [3] was −1.07%. For the same molecule, the inhibition at 10 µM (Opiate, Kappa (hr)) was -4.17%, the inhibition at 10 µM (Oxidase, MAO-A, Central [4]) was -0.11% and the “Receptor Binding % Inhibition” value (Oxidase, MAO-A, Central [5]) was 2.43%. The inhibition at 10 µM (Serotonin, 5HT1D (h)) was 7.26%, the “Receptor Binding % Inhibition” value (Serotonin, 5HT4) was 3.98% and the “effect versus the SNL/vehicle” value ([6]; 10 and 30 mg/kg) was “positive trend”. The “MED, reversal of mechanical hyperalgesia” value ([6]; spinal nerve ligation, p.o.) was 10 mg/kg and the “reversal of mechanical hyperalgesia” value ([6]; spinal nerve ligation, p.o.) was “statistically significant reversal”.
